Here are results for one compound from PMC7052086, “Functional characterization of NADPH-cytochrome P450 reductase and cinnamic acid 4-hydroxylase encoding genes from Scoparia dulcis L” (Botanical Studies, 2020).

SMILES strings stand for the structures.

This assay concerns the target T1, SdC4H (CYP73A111) with SdCPR (Scoparia dulcis, UniProt U5N2L3).
T1 construct: gene C4H; full-length ORF in pET28b, His-tagged, E. coli BL21(DE3), crude soluble fraction; redox partner recombinant SdCPR (GenBank KF306080) added; with NADPH--cytochrome P450 reductase
Nature of the assay: HPLC detection of 4-hydroxylated product. The assay is classed as biochemical. Particulars: 1 mM trans-cinnamic acid, 2 mM NADPH, recombinant SdCPR, 50 mM phosphate pH 7.4, 30 °C, 30 min.

T1 sequence (U5N2L3 entry or part of it): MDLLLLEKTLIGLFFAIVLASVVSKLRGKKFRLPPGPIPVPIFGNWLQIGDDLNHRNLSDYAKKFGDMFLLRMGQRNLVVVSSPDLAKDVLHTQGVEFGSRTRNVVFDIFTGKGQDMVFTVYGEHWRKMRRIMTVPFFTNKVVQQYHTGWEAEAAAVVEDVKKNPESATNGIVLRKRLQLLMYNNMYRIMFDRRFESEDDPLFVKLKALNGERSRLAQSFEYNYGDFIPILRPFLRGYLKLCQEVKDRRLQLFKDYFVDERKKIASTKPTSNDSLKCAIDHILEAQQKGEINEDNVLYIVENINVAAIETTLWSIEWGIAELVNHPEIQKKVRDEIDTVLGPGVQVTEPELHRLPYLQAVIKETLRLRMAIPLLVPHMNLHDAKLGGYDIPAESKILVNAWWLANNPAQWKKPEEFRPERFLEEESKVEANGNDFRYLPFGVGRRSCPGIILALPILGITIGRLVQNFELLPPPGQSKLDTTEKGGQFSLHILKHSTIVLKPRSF
T1 sequence (U5N352 entry or part of it, further chain): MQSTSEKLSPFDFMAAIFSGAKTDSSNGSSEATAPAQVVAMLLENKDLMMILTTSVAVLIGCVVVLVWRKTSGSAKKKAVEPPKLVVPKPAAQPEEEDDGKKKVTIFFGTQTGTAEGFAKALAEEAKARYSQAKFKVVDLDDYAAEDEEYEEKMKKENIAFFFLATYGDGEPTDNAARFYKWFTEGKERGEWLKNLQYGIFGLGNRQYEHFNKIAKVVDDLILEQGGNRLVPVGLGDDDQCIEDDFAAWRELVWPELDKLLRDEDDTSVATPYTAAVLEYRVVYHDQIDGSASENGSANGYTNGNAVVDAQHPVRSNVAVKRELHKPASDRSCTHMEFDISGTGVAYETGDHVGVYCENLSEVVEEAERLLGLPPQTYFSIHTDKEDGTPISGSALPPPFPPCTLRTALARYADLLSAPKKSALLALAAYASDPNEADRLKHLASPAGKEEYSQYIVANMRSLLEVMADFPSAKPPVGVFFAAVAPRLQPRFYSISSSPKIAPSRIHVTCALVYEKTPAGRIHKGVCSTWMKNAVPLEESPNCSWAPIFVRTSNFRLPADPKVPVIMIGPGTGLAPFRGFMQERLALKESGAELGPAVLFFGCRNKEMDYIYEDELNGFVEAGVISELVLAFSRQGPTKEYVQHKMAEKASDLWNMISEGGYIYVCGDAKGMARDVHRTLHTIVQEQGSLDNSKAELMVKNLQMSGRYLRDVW

For `O=C(O)/C=C/c1ccccc1` [trans-cinnamic acid], the “HPLC detection of 4-hydroxylated product” value was “the C4H activity (trans-cinnamic acid was 4-hydroxylated) of recombinant SdC4H was detected by HPLC”.
